Counter-ions that a name gives are not always drawn.
System: biocontrol strain ST15
Type: cell-based, Bacillus altitudinis
Note: key: +: not sensitive; −: sensitive.

Compound | chemical sensitivity of strain ST15
[Cl-].[Na+] [1% NaCl, NaCl] | +
CC(O)C(=O)[O-].[Na+] (centres unmarked) [1% sodium lactate, sodium lactate] | +
C[C@H]1[C@H](NC(=O)/C(=N\OC(C)(C)C(=O)O)c2csc(N)n2)C(=O)N1S(=O)(=O)O [Aztreonam] | +
N[C@H](CO)C(=O)O [D-serine] | −
O=[Te]([O-])[O-].[K+].[K+] [Dipotassium trioxotellurate] | +
CC(=O)O[C@H]1C[C@@]2(C)[C@@H](C[C@@H](O)[C@H]3[C@@]4(C)CC[C@@H](O)[C@@H](C)[C@@H]4CC[C@@]32C)/C1=C(\CCC=C(C)C)C(=O)O [Fusidic acid] | −
N=C(N)N [Guanidine hydrochloride] | +
CCC[C@@H]1C[C@@H](C(=O)N[C@@H]([C@H]2O[C@H](SC)[C@H](O)[C@@H](O)[C@H]2O)[C@@H](C)O)N(C)C1 [Lincomycin] | +
[Cl-].[Li+] [Lithium chloride] | +
CCn1cc(C(=O)O)c(=O)c2ccc(C)nc21 [Nalidixic acid] | +
CO[C@H]1/C=C/O[C@@]2(C)Oc3c(C)c([O-])c4c(O)c(cc(O)c4c3C2=O)NC(=O)/C(C)=C\C=C\[C@H](C)[C@H](O)[C@@H](C)[C@@H](O)[C@@H](C)[C@H](OC(C)=O)[C@@H]1C.[Na+] [Rifamycin SV] | −
CCCC(=O)[O-].[Na+] [Sodium butyrate] | +
CCCCCCCCCCCCCCOS(=O)(=O)[O-].[Na+] [Sodium tetradecyl sulfate] | −
COc1cc(-c2ccc(-n3nc(-c4ccccc4)n[n+]3-c3ccccc3)c(OC)c2)ccc1-n1nc(-c2ccccc2)n[n+]1-c1ccccc1.[Cl-].[Cl-] [Tetrazolium blue] | −
c1ccc(-c2nn(-c3ccccc3)[n+](-c3cccc4ccccc34)n2)cc1 [Tetrazolium violet] | −
CO[C@H]1C[C@H](O[C@H]2[C@H](C)[C@@H](O[C@@H]3O[C@H](C)C[C@H](N(C)C)[C@H]3OC(C)=O)[C@@H](C)C[C@@]3(CO3)C(=O)[C@H](C)[C@@H](OC(C)=O)[C@@H](C)[C@@H](C)OC(=O)[C@@H]2C)O[C@@H](C)[C@@H]1OC(C)=O [Troleandomycin] | −
CN[C@H](CC(C)C)C(=O)N[C@H]1C(=O)N[C@@H](CC(N)=O)C(=O)N[C@H]2C(=O)N[C@H]3C(=O)N[C@H](C(=O)N[C@H](C(=O)O)c4cc(O)cc(O)c4-c4cc3ccc4O)[C@H](O)c3ccc(c(Cl)c3)Oc3cc2cc(c3O[C@@H]2O[C@H](CO)[C@@H](O)[C@H](O)[C@H]2O[C@H]2C[C@](C)(N)[C@H](O)[C@H](C)O2)Oc2ccc(cc2Cl)[C@H]1O [Vancomycin] | −
